Measured values from patent publication US10015966B2, “Fungicidal pyrazole mixtures” (E I DU PONT DE NEMOURS AND COMPANY, priority 2012, dated 2018).
Marks after values point to notes of the source that are not given here.

Assays:
[1] = test system: Botrytis cinerea; assay: Test A: preventive spray on tomato seedlings, tomato Botrytis, visual disease rating; assay type: in vivo; details: 200 ppm test suspension
Procedure: General protocol for preparing test suspensions for Tests A-I: the test compounds were first dissolved in acetone in an amount equal to 3% of the final volume and then suspended at the desired concentration (in ppm) in acetone and purified water (50/50 mix by volume) containing 250 ppm of the surfactant Trem® 014 (polyhydric alcohol esters). The resulting test suspensions were then used in Tests A-I. Each test was conducted in triplicate, and the results were averaged. Spraying a 200 ppm test suspension to the point of run-off on the test plants was the equivalent of a rate of about 800 g/ha. Unless otherwise indicated, the rating values indicate a 200 ppm test suspension was used. (An asterisk “*” next to the rating value indicates a 40 ppm test suspension was used.) The test suspension was sprayed to the point of run-off on tomato seedlings. The following day the seedlings were inoculated with a spore suspension of Botrytis cinerea (the causal agent of tomato Botrytis) and incubated in saturated atmosphere at 20° C. for 48 h, and then moved to a growth chamber at 24° C. for 3 additional days, after which time visual disease ratings were made. Results for Tests A-I are given in Table A. In the Table, a rating of 100 indicates 100% disease control and a rating of 0 indicates no disease control (relative to the controls). A hyphen (-) indicates no test results.

[2] = test system: Septoria tritici; assay: Test F: preventive spray on wheat seedlings, wheat leaf blotch, visual disease rating; assay type: in vivo; details: Zymoseptoria tritici, 200 ppm test suspension
Procedure: General protocol for preparing test suspensions for Tests A-I: the test compounds were first dissolved in acetone in an amount equal to 3% of the final volume and then suspended at the desired concentration (in ppm) in acetone and purified water (50/50 mix by volume) containing 250 ppm of the surfactant Trem® 014 (polyhydric alcohol esters). The resulting test suspensions were then used in Tests A-I. Each test was conducted in triplicate, and the results were averaged. Spraying a 200 ppm test suspension to the point of run-off on the test plants was the equivalent of a rate of about 800 g/ha. Unless otherwise indicated, the rating values indicate a 200 ppm test suspension was used. (An asterisk “*” next to the rating value indicates a 40 ppm test suspension was used.) The test suspension was sprayed to the point of run-off on wheat seedlings. The following day the seedlings were inoculated with a spore suspension of Septoria tritici (the causal agent of wheat leaf blotch) and incubated in saturated atmosphere at 24° C. for 48 h. and then the seedlings were moved to a growth chamber at 20° C. for 19 additional days, after which time visual disease ratings were made. Results for Tests A-I are given in Table A. In the Table, a rating of 100 indicates 100% disease control and a rating of 0 indicates no disease control (relative to the controls). A hyphen (-) indicates no test results.

[3] = test system: Blumeria graminis f. sp. tritici; assay: Test I: preventive spray on wheat seedlings, wheat powdery mildew, visual disease rating; assay type: in vivo; details: 192 h, 200 ppm test suspension
Procedure: General protocol for preparing test suspensions for Tests A-I: the test compounds were first dissolved in acetone in an amount equal to 3% of the final volume and then suspended at the desired concentration (in ppm) in acetone and purified water (50/50 mix by volume) containing 250 ppm of the surfactant Trem® 014 (polyhydric alcohol esters). The resulting test suspensions were then used in Tests A-I. Each test was conducted in triplicate, and the results were averaged. Spraying a 200 ppm test suspension to the point of run-off on the test plants was the equivalent of a rate of about 800 g/ha. Unless otherwise indicated, the rating values indicate a 200 ppm test suspension was used. (An asterisk “*” next to the rating value indicates a 40 ppm test suspension was used.) The test suspension was sprayed to the point of run-off on wheat seedlings. The following day the seedlings were inoculated with a spore dust of Blumeria graminis f. sp. tritici (also known as Erysiphe graminis f. sp. tritici, the causal agent of wheat powdery mildew) and incubated in a growth chamber at 20° C. for 8 days, after which time visual disease ratings were made. Results for Tests A-I are given in Table A. In the Table, a rating of 100 indicates 100% disease control and a rating of 0 indicates no disease control (relative to the controls). A hyphen (-) indicates no test results.

[4] = test system: Puccinia recondita f. sp. tritici; assay: Test H: preventive spray on wheat seedlings, wheat leaf rust, visual disease rating; assay type: in vivo; details: 200 ppm test suspension
Procedure: General protocol for preparing test suspensions for Tests A-I: the test compounds were first dissolved in acetone in an amount equal to 3% of the final volume and then suspended at the desired concentration (in ppm) in acetone and purified water (50/50 mix by volume) containing 250 ppm of the surfactant Trem® 014 (polyhydric alcohol esters). The resulting test suspensions were then used in Tests A-I. Each test was conducted in triplicate, and the results were averaged. Spraying a 200 ppm test suspension to the point of run-off on the test plants was the equivalent of a rate of about 800 g/ha. Unless otherwise indicated, the rating values indicate a 200 ppm test suspension was used. (An asterisk “*” next to the rating value indicates a 40 ppm test suspension was used.) The test suspension was sprayed to the point of run-off on wheat seedlings. The following day the seedlings were inoculated with a spore suspension of Puccinia recondita f. sp. tritici (the causal agent of wheat leaf rust) and incubated in a saturated atmosphere at 20° C. for 24 h, and then moved to a growth chamber at 20° C. for 6 days, after which time visual disease ratings were made. Results for Tests A-I are given in Table A. In the Table, a rating of 100 indicates 100% disease control and a rating of 0 indicates no disease control (relative to the controls). A hyphen (-) indicates no test results.

[5] = Single oral dose pharmacokinetics in rats, plasma and fat analysed by LC/MS (fat:plasma ratio); assay type: in vivo; details: single dose via oral gavage, compared to corresponding compounds with a nonhydrogen substituent at the para position of the phenyl ring connected to R^1 and R^2
Procedure: The pharmacokinetic properties of compounds of Formula 1 can be measured using a wide variety of assay protocols known in the science of pharmacology. In one illustrative method involving a single oral dose, three male and three female rats receive a single dose of a test substance via oral gavage. Approximately 0.25 mL of blood is collected via tail vein immediately prior to dosing, and then at 0.25, 0.5, 1, 2, 4, 8, 12, 24 h and every 24 h thereafter until sacrifice. At sacrifice, fat is also collected to determine the fat:plasma ratio at sacrifice. Blood is collected into tubes that contain ethylenediaminetetracetic acid (EDTA) and centrifuged at 2500×g in order to separate plasma from blood cells. The plasma is then extracted by protein precipitation using, for example, acetonitrile and a protein precipitation plate (e.g., Strata Impact Protein Precipitation Plate, part number CEO-7565 of Phenomenex, Torrance, Calif., U.S.A.) following directions provided for the plate. Alternatively, the plasma is extracted just with acetonitrile, vortexed (i.e. mixed using a vortex mixer), and centrifuged to pellet the proteins. After removal of the proteins, the plasma is analyzed for parent compound and/or metabolites by liquid chromatography-mass spectrometry (LC/MS). The fat is homogenized and extracted by an organic solvent such as acetonitrile. The extract is then analyzed for parent compound and/or metabolites by LC/MS. The plasma pharmacokinetic data is then analyzed using nonlinear modeling software (e.g., WinNonlin™ from Pharsight, Cary, N.C., U.S.A.) to determine half-life of the administered compound in plasma, the time after administration when the maximum plasma concentration is reached (Tmax), the maximum plasma concentration (Cmax) and the area under the plasma concentration curve (AUC). As analysis of fat requires rat sacrifice, fat data is obtained at single time points (i.e. the time of rat sacrifice). However, by using multiple rats sacrificed after different intervals from time of dosing, such parameters as Cmax for fat are determined.

[6] = test system: Septoria nodorum; assay: Test E: preventive spray on wheat seedlings, Septoria glume blotch, visual disease rating; assay type: in vivo; details: asterisked rating: test suspension other than 200 ppm
Procedure: General protocol for preparing test suspensions for Tests A-I: the test compounds were first dissolved in acetone in an amount equal to 3% of the final volume and then suspended at the desired concentration (in ppm) in acetone and purified water (50/50 mix by volume) containing 250 ppm of the surfactant Trem® 014 (polyhydric alcohol esters). The resulting test suspensions were then used in Tests A-I. Each test was conducted in triplicate, and the results were averaged. Spraying a 200 ppm test suspension to the point of run-off on the test plants was the equivalent of a rate of about 800 g/ha. Unless otherwise indicated, the rating values indicate a 200 ppm test suspension was used. (An asterisk “*” next to the rating value indicates a 40 ppm test suspension was used.) The test suspension was sprayed to the point of run-off on wheat seedlings. The following day the seedlings were inoculated with a spore suspension of Septoria nodorum (the causal agent of Septoria glume blotch) and incubated in a saturated atmosphere at 24° C. for 48 h, and then moved to a growth chamber at 20° C. for 9 days, after which time visual disease ratings were made. Results for Tests A-I are given in Table A. In the Table, a rating of 100 indicates 100% disease control and a rating of 0 indicates no disease control (relative to the controls). A hyphen (-) indicates no test results.

Structure (SMILES) | pest or weed control at 200 ppm [1] [%] | pest or weed control at 200 ppm [2] [%] | pest or weed control at 200 ppm [3] [%] | pest or weed control at 200 ppm [4] [%] | distribution into fat [5] | melting point [°C] | Test E rating (% disease control) [6]
Cc1nn(C)c(Nc2c(F)cccc2Cl)c1-c1ccc(F)cc1Br [Compound 4, 4-(2-bromo-4-fluorophenyl)-N-(2-chloro-6-fluorophenyl)-1,3-dimethyl-1H-pyrazol-5-amine] | 100 | 100 | 100 | 100 | significantly diminished distribution into fat |  | 
Cc1nn(C)c(Nc2c(F)cccc2Br)c1-c1ccc(F)cc1Cl [Compound 5, N-(2-bromo-6-fluorophenyl)-4-(2-chloro-4-fluorophenyl)-1,3-dimethyl-1H-pyrazol-5-amine] | 100 | 100 | 100 | 100 | significantly diminished distribution into fat |  | 
Cc1nn(C)c(Nc2c(F)cccc2Br)c1-c1ccc(F)cc1Br [Compound 7, 4-(2-bromo-4-fluorophenyl)-N-(2-bromo-6-fluorophenyl)-1,3-dimethyl-1H-pyrazol-5-amine] | 100 | 100 | 100 | 100 |  | 154 to 156 | 
Cc1nn(C)c(Nc2ccccc2Cl)c1-c1ccc(F)cc1Br [Compound 8, 4-(2-bromo-4-fluorophenyl)-N-(2-chlorophenyl)-1,3-dimethyl-1H-pyrazol-5-amine] | 100 | 100 | 100 | 99 |  |  | 
Cc1nn(C)c(Nc2ccccc2Br)c1-c1ccc(F)cc1Cl [Compound 9, N-(2-bromophenyl)-4-(2-chloro-4-fluorophenyl)-1,3-dimethyl-1H-pyrazol-5-amine] |  |  |  |  |  |  | 0* %
Cc1nn(C)c(Nc2ccccc2Cl)c1-c1ccc(F)cc1Cl [Compound 10, 4-(2-chloro-4-fluorophenyl)-N-(2-chlorophenyl)-1,3-dimethyl-1H-pyrazol-5-amine] |  |  |  |  |  |  | 0* %
Cc1nn(C)c(Nc2c(F)cccc2F)c1-c1ccc(F)cc1Br [Compound 11, 4-(2-bromo-4-fluorophenyl)-N-(2,6-difluorophenyl)-1,3-dimethyl-1H-pyrazol-5-amine] |  |  |  |  |  |  | 60* %
